Source: PMC8799717, “Pharmacological targeting PIKfyve and tubulin as an effective treatment strategy for double-hit lymphoma” (Cell Death Discovery, 2022)

Columns and labels:
Test in all cases: biochemical
Parameters in all cases: KINOMEscan active-site-directed competition binding panel, 468 kinases, percent of DMSO control at 1 uM
Details in all cases: KINOMEscan binding, percent of DMSO control; read-out: Ctrl%
[1] = biological target: FGFR3 (Homo sapiens, UniProt P22607)
[2] = biological target: PIK3CA(M1043I) (Homo sapiens, UniProt P42336, M1043I)
[3] = biological target: SGK3 (Homo sapiens, UniProt Q96BR1)
[4] = biological target: T1, TYK2(JH2domain-pseudokinase) (Homo sapiens, UniProt P29597)
T1 construct: JH2domain-pseudokinase

[5] = biological target: NEK10 (Homo sapiens, UniProt Q6ZWH5)
[6] = biological target: TAOK2 (Homo sapiens, UniProt Q9UL54)
[7] = biological target: SRPK1 (Homo sapiens, UniProt Q96SB4)
[8] = biological target: TBK1 (Homo sapiens, UniProt Q9UHD2)
[9] = biological target: MST1R (Homo sapiens, UniProt Q04912)
[10] = biological target: AURKA (Homo sapiens, UniProt O14965)
[11] = biological target: T2, ICK (Homo sapiens, UniProt Q9UPZ9)
T2 construct: gene CILK1

[12] = biological target: CSNK1G2 (Homo sapiens, UniProt P78368)
[13] = biological target: TLK1 (Homo sapiens, UniProt Q9UKI8)
[14] = biological target: T3, PCTK2 (Homo sapiens, UniProt Q00537)
T3 construct: gene CDK17

[15] = biological target: T4, MEK1 (Homo sapiens, UniProt Q02750)
T4 construct: gene MAP2K1

[16] = biological target: CAMK1 (Homo sapiens, UniProt Q14012)
[17] = biological target: T5, ABL1(F317L)-nonphosphorylated (Homo sapiens, UniProt P00519, F317L)
T5 construct: nonphosphorylated

[18] = biological target: RIPK4 (Homo sapiens, UniProt P57078)
[19] = biological target: T6, CDK11 (Homo sapiens, UniProt Q9BWU1)
T6 construct: gene CDK19

[20] = biological target: PIK3CA(H1047Y) (Homo sapiens, UniProt P42336, H1047Y)
[21] = biological target: RET(V804M) (Homo sapiens, UniProt P07949, V804M)
[22] = biological target: SRPK2 (Homo sapiens, UniProt P78362)
[23] = biological target: WNK1 (Homo sapiens, UniProt Q9H4A3)
[24] = biological target: TNK1 (Homo sapiens, UniProt Q13470)

T6 sequence (Q9BWU1 whole entry): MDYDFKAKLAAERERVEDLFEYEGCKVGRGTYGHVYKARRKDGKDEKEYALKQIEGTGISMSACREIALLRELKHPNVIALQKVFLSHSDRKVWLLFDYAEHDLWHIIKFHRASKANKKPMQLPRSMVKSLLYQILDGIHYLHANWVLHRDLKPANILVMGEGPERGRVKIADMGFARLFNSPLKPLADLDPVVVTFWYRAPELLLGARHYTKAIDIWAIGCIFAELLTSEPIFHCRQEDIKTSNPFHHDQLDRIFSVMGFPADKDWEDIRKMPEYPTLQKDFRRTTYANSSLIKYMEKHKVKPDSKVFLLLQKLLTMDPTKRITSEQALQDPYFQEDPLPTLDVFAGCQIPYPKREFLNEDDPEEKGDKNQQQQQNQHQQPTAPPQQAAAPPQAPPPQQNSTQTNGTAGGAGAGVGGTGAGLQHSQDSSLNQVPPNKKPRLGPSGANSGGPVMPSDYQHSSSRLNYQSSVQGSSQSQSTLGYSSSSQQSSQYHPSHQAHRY
T1 sequence (P29597 whole entry): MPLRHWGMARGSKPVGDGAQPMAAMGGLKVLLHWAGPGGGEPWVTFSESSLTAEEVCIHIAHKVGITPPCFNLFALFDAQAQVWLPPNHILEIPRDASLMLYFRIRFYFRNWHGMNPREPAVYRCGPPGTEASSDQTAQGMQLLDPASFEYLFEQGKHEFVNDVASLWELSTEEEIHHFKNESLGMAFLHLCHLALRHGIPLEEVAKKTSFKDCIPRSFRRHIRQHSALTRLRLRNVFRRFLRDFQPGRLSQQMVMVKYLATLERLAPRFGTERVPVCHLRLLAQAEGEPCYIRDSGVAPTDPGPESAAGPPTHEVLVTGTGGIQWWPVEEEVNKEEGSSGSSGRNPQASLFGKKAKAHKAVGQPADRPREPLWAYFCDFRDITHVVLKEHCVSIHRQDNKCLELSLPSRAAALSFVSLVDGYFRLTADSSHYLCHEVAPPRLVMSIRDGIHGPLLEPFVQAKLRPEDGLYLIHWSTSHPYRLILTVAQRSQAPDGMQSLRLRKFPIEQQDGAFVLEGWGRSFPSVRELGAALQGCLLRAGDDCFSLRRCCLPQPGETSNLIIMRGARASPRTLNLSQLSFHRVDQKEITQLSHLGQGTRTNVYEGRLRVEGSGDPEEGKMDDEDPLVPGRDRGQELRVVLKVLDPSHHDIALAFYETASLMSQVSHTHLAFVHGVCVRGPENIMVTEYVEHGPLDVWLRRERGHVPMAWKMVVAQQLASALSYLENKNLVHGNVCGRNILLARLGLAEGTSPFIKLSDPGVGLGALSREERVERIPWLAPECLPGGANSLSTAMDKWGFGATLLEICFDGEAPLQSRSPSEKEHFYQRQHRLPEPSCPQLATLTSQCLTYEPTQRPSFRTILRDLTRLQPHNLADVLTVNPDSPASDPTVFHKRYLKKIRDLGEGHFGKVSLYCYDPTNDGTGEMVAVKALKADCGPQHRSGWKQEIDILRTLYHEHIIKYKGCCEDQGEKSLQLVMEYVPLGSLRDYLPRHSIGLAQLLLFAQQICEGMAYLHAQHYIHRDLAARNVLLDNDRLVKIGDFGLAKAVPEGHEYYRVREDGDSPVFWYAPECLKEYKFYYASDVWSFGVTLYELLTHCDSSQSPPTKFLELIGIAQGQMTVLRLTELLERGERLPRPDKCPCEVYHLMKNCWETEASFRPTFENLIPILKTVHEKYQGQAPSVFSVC
T4 sequence (Q02750 whole entry): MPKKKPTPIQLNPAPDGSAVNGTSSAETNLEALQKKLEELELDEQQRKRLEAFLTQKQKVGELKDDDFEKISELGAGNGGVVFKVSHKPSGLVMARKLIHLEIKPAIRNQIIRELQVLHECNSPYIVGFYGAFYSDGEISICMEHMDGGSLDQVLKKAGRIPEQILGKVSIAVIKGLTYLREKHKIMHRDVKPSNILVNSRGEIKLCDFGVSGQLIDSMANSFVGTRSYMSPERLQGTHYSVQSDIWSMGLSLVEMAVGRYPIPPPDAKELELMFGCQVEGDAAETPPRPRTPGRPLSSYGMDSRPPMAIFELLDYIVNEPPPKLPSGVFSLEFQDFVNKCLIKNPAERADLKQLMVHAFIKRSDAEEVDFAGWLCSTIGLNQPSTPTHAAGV
AURKA, sequence (O14965 whole entry): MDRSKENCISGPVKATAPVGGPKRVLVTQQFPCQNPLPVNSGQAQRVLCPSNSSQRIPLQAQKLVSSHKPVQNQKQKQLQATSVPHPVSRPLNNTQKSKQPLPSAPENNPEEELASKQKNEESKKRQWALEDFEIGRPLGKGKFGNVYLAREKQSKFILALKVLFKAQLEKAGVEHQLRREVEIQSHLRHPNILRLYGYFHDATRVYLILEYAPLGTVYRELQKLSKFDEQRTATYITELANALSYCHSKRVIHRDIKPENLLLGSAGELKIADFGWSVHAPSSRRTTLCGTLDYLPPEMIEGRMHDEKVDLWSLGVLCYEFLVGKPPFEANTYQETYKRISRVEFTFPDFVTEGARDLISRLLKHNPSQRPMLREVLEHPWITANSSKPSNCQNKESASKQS
TBK1, sequence (Q9UHD2 whole entry): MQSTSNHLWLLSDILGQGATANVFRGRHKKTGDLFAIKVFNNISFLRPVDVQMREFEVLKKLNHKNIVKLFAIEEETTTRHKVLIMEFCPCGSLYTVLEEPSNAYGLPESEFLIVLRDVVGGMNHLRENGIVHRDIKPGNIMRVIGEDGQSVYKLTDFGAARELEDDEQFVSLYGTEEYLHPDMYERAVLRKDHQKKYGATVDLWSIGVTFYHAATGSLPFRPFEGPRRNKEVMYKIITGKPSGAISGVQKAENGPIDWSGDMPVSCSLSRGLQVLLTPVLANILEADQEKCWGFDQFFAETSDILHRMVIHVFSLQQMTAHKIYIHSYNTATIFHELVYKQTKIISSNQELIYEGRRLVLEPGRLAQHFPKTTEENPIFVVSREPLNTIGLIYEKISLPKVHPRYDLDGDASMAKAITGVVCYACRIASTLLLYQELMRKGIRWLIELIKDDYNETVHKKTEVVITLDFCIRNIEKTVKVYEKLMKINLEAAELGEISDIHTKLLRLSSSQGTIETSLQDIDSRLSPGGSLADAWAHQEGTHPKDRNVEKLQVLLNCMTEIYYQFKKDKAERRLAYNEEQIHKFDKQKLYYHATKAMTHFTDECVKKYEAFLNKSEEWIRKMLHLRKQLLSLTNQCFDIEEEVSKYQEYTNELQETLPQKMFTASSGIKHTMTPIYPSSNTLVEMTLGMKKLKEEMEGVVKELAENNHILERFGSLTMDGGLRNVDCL
PIK3CA(M1043I), sequence (P42336 whole entry M1043I): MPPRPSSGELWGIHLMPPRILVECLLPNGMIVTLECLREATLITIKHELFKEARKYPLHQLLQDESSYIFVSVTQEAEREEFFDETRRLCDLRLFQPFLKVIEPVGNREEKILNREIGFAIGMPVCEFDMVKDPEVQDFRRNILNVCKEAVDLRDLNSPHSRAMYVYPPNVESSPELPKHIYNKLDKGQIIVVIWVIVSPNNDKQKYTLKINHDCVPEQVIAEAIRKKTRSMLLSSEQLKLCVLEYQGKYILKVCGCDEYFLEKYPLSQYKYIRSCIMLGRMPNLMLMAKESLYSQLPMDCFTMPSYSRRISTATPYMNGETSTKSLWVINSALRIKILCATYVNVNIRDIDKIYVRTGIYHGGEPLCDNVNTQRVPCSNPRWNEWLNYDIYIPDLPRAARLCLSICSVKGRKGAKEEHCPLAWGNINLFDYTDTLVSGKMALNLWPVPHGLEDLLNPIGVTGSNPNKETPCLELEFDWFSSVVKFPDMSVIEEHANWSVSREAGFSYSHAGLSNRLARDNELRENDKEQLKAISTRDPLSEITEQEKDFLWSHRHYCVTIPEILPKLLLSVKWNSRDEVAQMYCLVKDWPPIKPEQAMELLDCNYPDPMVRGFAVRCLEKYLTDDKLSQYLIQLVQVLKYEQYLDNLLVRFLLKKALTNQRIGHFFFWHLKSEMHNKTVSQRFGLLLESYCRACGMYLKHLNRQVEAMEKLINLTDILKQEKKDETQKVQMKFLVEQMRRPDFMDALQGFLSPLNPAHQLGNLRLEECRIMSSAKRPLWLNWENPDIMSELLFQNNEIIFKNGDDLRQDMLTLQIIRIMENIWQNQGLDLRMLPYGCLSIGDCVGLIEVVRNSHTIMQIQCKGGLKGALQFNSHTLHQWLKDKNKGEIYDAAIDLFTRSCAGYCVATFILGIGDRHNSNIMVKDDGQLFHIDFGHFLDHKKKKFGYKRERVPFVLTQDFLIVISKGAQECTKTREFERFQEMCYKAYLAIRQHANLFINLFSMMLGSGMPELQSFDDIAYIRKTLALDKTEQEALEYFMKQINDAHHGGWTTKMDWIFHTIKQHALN
TLK1, sequence (Q9UKI8 whole entry): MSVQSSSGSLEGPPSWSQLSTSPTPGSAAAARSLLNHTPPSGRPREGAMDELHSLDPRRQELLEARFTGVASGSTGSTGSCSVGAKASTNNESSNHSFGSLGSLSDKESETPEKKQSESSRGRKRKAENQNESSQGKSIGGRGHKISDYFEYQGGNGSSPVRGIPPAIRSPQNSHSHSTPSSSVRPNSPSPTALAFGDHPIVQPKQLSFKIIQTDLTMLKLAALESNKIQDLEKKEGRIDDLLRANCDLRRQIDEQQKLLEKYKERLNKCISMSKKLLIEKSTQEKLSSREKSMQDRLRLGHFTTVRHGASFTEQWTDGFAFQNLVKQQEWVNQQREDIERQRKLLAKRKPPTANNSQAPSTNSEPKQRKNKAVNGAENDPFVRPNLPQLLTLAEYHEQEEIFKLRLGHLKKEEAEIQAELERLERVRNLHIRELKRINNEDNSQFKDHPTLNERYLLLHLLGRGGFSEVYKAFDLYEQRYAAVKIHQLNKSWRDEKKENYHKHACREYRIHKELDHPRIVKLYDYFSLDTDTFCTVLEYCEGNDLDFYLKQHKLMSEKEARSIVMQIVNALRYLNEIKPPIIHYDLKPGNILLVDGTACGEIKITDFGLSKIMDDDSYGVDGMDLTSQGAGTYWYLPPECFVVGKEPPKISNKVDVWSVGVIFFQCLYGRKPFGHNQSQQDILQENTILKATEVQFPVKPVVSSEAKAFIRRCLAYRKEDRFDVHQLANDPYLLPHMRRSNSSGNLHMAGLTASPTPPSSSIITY

Cc1ccc(NC(=O)c2cccc(C(F)(F)F)c2)cc1Nc1cc(-c2cccnc2)nc2[nH]ccc12 [HZX-02-059]
remaining binding at 1 µM [1]: 86%
remaining binding at 1 µM [2]: 92%
remaining binding at 1 µM [3]: 100%
remaining binding at 1 µM [4]: 92%
remaining binding at 1 µM [5]: 100%
remaining binding at 1 µM [6]: 98%
remaining binding at 1 µM [7]: 95%
remaining binding at 1 µM [8]: 100%
remaining binding at 1 µM [9]: 89%
remaining binding at 1 µM [10]: 100%
remaining binding at 1 µM [11]: 77%
remaining binding at 1 µM [12]: 96%
remaining binding at 1 µM [13]: 95%
remaining binding at 1 µM [14]: 100%
remaining binding at 1 µM [15]: 100%
remaining binding at 1 µM [16]: 100%
remaining binding at 1 µM [17]: 60%
remaining binding at 1 µM [18]: 75%
remaining binding at 1 µM [19]: 79%
remaining binding at 1 µM [20]: 88%
remaining binding at 1 µM [21]: 95%
remaining binding at 1 µM [22]: 83%
remaining binding at 1 µM [23]: 98%
remaining binding at 1 µM [24]: 91%
